Experimental data reported in US8304371B2, “Insecticidal arylpyrrolines” (Bayer Cropscience AG, priority 2008, dated 2012).
Where two headings read alike, the source gives them in different places.

Columns and labels:
Type in all cases: in vivo
[1] = system: Cat Fleas (Ctenocephalides fells); experiment: Test against cat fleas, blood feeding; conditions: for mortality at 100 ppm: Ctenocephalides, 48 h, read-out: mortality rate
Procedure: (§1) Solvent: Dimethylsulfoxide
About 10 to 15 adult cat fleas are provided in a container exclusive for fleas. An exclusive container containing the test solution is covered with Parafilm, reversed upside down, and then mounted on top of the flea container, so that the cat fleas can suck the blood in the container. The test solution is maintained at 37° C., and the flea container is maintained at room temperature. After 2 days the mortality rate of the cat fleas is measured. 100% means that all of the cat fleas have been killed, while 0% means that all are alive.

[2] = system: Housefly (Musca domestica); experiment: Test against housefly; conditions: for mortality at 100 ppm: Musca domestica, 48 h, read-out: mortality rate
Procedure: as §1
(§2) In order to make a suitable test solution, 10 mg of an active compound is dissolved in 0.5 ml of the solvent, and the mixture is diluted with water to a predetermined concentration.
In a preliminary stage of the test, a piece of sponge having a certain size is soaked with a mixture of sugar and the test solution is placed in a test container. Ten adult houseflies are introduced to the container, and the container is covered with a perforated lid.
After 2 days, the mortality rate of the houseflies is measured. At that time, 100% means that all of the houseflies have been killed, and 0% means that all are alive.

[3] = system: Tobacco Cutworm (Spodoptera litura) Larvae; experiment: Test against tobacco cutworm (Spodoptera litura) larvae, leaf dip; conditions: active compound concentration 100 ppm; third-instar larvae; after 7 days
Procedure: (§3) Unless nomentioned otherwise, the test solutions were prepared as follows:
(§4) Containing as solvent: Dimethylformamide, 3 parts by weight; and as emulsifier: Polyoxyethylene alkyl phenyl ether, 1 part by weight
(§5) To prepare the test solution, 1 part by weight of an active compound is mixed with the above-mentioned amount of solvent containing the above-mentioned amount of emulsifier, and the mixture is diluted with water to the desired concentration.
The leaves of sweet potato were immersed in the test solution at the appropriate concentration, and the leaves were dried in air. The leaves were then placed in a petri dish having a diameter of 9 cm, and ten third-instar larvae of tobacco cutworm were released therein. The petri dish was placed in a temperature chamber at 25° C. After 2 days and 4 days sweet potato leaves were additionally added. After 7 days, the number of dead larvae was counted, to calculate the insecticidal activity. An insecticidal activity of 100% means that all larvae were killed, whereas an insecticidal activity of 0% means that no larva was killed. In the current test, the results of two petri dishes for each partition were averaged.

[4] = system: Cucurbit Leaf Beetle (Aulacophora femoralis); experiment: Test against cucurbit leaf beetle, cucumber leaf dip; conditions: active compound concentration 100 ppm; second-instar larvae; after 7 days
Procedure: as §3, §4, §5
Cucumber leaves were immersed in the test solution at the appropriate concentration, and the leaves were dried in air. The leaves were then placed in a plastic cup containing aseptically sterilized black soil, and five second-instar larvae of cucurbit leaf beetle were released therein. After 7 days, the number of dead larvae was counted, and thus the insecticidal activity was calculated. An insecticidal activity of 100% means that all beetles were killed, whereas an insecticidal activity of 0% means that no beetle was killed.

[5] = system: Two-Spotted Spider Mite (Tetranvchus urticae); experiment: Test against two-spotted spider mite, spray on kidney bean; conditions: active compound concentration 100 ppm; adult mites; after 7 days
Procedure: as §3, §4, §5
50 to 100 adult two-spotted spider mites were inoculated onto the leaves of kidney beans at the two-true leaf stage, which plant had been cultivated in a pot having a diameter of 6 cm. After one day, test solution at the appropriate concentration was sprayed thereon in a sufficient amount using a spray gun. After the spraying, the plant pot was placed inside a greenhouse, and after 7 days, the acaricidal activity was calculated. An acaricidal activity of 100% means that all mites were killed, whereas an acaricidal activity of 0% means that no mite was killed.

[6] = system: Cattle Tick (Boophilus microplus); experiment: Test against cattle tick, injection; conditions: 20 μg/animal injected; after 7 days; 100% means that all eggs are infertile
Procedure: as §1
In order to make a suitable test solution, 10 mg of an active compound is dissolved in 0.5 ml of the above mentioned solvent, and the mixture is diluted with water to a predetermined concentration.
The test solution is injected into the abdomens of five fully-fed female adult cattle ticks. The cattle ticks are transferred to a replica plate, and are bred in a breeding vessel for a certain time period. Egg deposition of fertile eggs is monitored.
After 7 days the mortality rate of the cattle ticks is measured. 100% means that all eggs are infertile; and 0% means that all eggs are fertile.

[7] = system: Sheep Blowfly (Lucillia cuprina); experiment: Test against sheep blowfly; conditions: active compound concentration 100 ppm; after 2 days
Procedure: as §1, §2
Minced horse meat having a size of 1 square centimeter, and 0.5 ml of the test solution are placed in a test tube, and about 20 to 30 adult sheep blowflies are introduced therein.
After 2 days the mortality rate of the sheep blowflies is measured. 100% means that all of the sheep blowflies have been killed, and 0% means that all are alive.

[8] = system: Strain of Green Peach Aphid (Mvzus persicas) which is Resistant to Organic Phosphorus and Carbamate Agents; experiment: Test against resistant green peach aphid, spray on egg plant; conditions: active compound concentration 500 ppm; after 7 days
Procedure: as §3, §4, §5
About 30 to 50 of the resistant green peach aphids were inoculated per seedling, onto the leaves of egg plant at the two-true leaf stage, which plant had been cultivated in a pot having a diameter of 6 cm. One day after the inoculation, the test solution at the appropriate concentration was sprayed thereon in a sufficient amount using a spray gun. After the spraying, the plant pot was placed in a greenhouse at 28° C., and after 7 days, the insecticidal activity was calculated. An insecticidal activity of 100% means that all aphids were killed, whereas an insecticidal activity of […] means that no aphid was killed. The test was repeated two times.

[9] = system: adult engorged female Boophilus microplus ticks; experiment: Boophilus microplus test, immersion of engorged females; conditions: Rhipicephalus microplus, 168 h, read-out: activity (mortality in %)
Procedure: Solvent: Dimethylsulfoxid
To produce a suitable preparation of active compound, 10 mg of active compound are dissolved in 0.5 ml solvent, and the concentrate is diluted with water to the desired concentration.
Eight to ten adult engorged female Boophilus microplus ticks are placed in perforated plastic beakers and immersed in aqueous compound solution for one minute. Ticks are transferred to a filter paper in a plastic tray. Egg deposition of fertile eggs is monitored after.
After 7 days mortality in % is determined. 100% means that all the ticks have been killed; 0% means that none of the ticks have been killed.

[10] = system: Nymphs of the tick Amblyomma hebraeum; experiment: Amblyomma hebraeum test, nymph immersion; conditions: 48 h, read-out: activity (mortality in %)
Procedure: as §1
To produce a suitable preparation of active compound. 1 part by weight of active compound is mixed with the stated amount of solvent, and the concentrate is diluted with containing solvent to the desired concentration.
Nymphs of the tick Amblyomma hebraeum are placed in perforated plastic beakers and immersed in aqueous compound solution for one minute. Ticks are transferred to a filter paper in a Petri dish and incubated in a climate chamber for 42 days.
After 2 days mortality in % is determined. 100% means that all the ticks have been killed; 0% means that none of the ticks have been killed.

[11] = active compound concentration 100 ppm in blood, adult fleas, after 2 days
[12] = application rate 100 ppm, immersed one minute, after 7 days
[13] = application rate 100 ppm, immersed one minute, after 2 days

In the case of FC(F)(F)C1(c2cc(Cl)cc(Cl)c2)CN=C(c2ccc(-n3cncn3)c(Br)c2)C1 (stereo not shown) [1-21], the mortality rate [1, 11] is reported as “at least 90%”, the mortality rate ([2]; active compound concentration 100 ppm, adult houseflies, after 2 days) is reported as 100% and the insecticidal activity [3] is reported as 100%. The insecticidal activity [4] was 100%, the acaricidal activity [5] was 100% and the mortality rate [6] was 100%. For the same compound, the mortality rate [7] was 100% and the insecticidal activity [8] was 100%.
Work on N#Cc1cc(C2=NCC(c3cc(Cl)c(Cl)c(Cl)c3)(C(F)(F)F)C2)ccc1-n1cncn1 (stereo not shown) [1-78, 2-(1H-1,2,4-triazol-1-yl)-5-[3-(3,4,5-trichlorophenyl)-3-(trifluoromethyl)-3,4-dihydro-2H-pyrrol-5-yl]-benzonitrile] yielded a mortality at 100 ppm [9, 12] of no less than 80%, a mortality at 100 ppm [1, 11] of no less than 80% and a mortality at 100 ppm [2] of no less than 80%. For the same compound, the insecticidal activity [3] was 100%, the insecticidal activity [4] was 100% and the acaricidal activity [5] was 100%. For the same compound, the mortality at 100 ppm [10, 13] was no less than 80% and the insecticidal activity [8] was 100%.
With CC(=O)NCc1ccc(C2=NCC(c3cc(Cl)cc(Cl)c3)(C(F)(F)F)C2)cc1Br (stereo not shown) [2-13, N-{2-bromo-4-[3-(3,5-dichlorophenyl)-3-(trifluoromethyl)-3,4-dihydro-2H-pyrrol-5-yl]benzyl}acetamide] the mortality at 100 ppm [9, 12] was no less than 80%, the mortality at 100 ppm [1, 11] was no less than 80% and the mortality at 100 ppm [2] was no less than 80%. The insecticidal activity [3] was 100%.
In the case of CC(=O)NCc1ccc(C2=NCC(c3cc(Cl)c(Cl)c(Cl)c3)(C(F)(F)F)C2)c2ccccc12 (stereo not shown) [11-5], the insecticidal activity [3] is reported as 100%, the insecticidal activity [4] is reported as 100% and the acaricidal activity [5] is reported as 100%. The insecticidal activity [8] was 100%.
CCC(=O)NCc1ccc(C2=NCC(c3cc(Cl)c(Cl)c(Cl)c3)(C(F)(F)F)C2)c2ccccc12 (stereo not shown) [11-6] gave an insecticidal activity [3] of 100%, an insecticidal activity [4] of 100% and an acaricidal activity [5] of 100%. For the same compound, the insecticidal activity [8] was 100%.
Compound O=C(NCc1ccc(C2=NCC(c3cc(Cl)c(Cl)c(Cl)c3)(C(F)(F)F)C2)c2ccccc12)C1CC1 (stereo not shown) [11-7] has an insecticidal activity [3] of 100%, an insecticidal activity [4] of 100% and an acaricidal activity [5] of 100%. The insecticidal activity [8] was 100%.
O=C(CC(F)(F)F)NCc1ccc(C2=NCC(c3cc(Cl)c(Cl)c(Cl)c3)(C(F)(F)F)C2)c2ccccc12 (stereo not shown) [11-8] was tested, and the insecticidal activity [3] was 100%, the insecticidal activity [4] was 100% and the acaricidal activity [5] was 100%. The insecticidal activity [8] was 100%.
CS/C(=N\C[Si](C)(C)C)c1ccc(COC(C)=O)c2ccccc12 [15-2, {4-[(Z)-(methylsulfanyl){[(trimethylsilyl)methyl]imino}methyl]naphthalen-1-yl}methyl acetate] showed a mortality at 100 ppm [9] of no less than 80%, a mortality at 100 ppm [1] of no less than 80% and a mortality at 100 ppm [2] of no less than 80%. For the same compound, the mortality at 100 ppm [10] was no less than 80%.
With N#Cc1cc(C2=NCC(c3cc(Cl)cc(Cl)c3)(C(F)(F)F)C2)ccc1-n1cncn1 (stereo not shown) [Compound No. 1-39, 5-[3-(3,5-dichlorophenyl)-3-(trifluoromethyl)-3,4-dihydro-2H-pyrrol-5-yl]-2-(1H-1,2,4-triazol-1-yl)benzonitrile] the mortality at 100 ppm [9, 12] was no less than 80%, the mortality at 100 ppm [1, 11] was 100% and the mortality at 100 ppm [2] was 100%. For the same compound, the insecticidal activity [3] was 100%, the insecticidal activity [4] was 100% and the acaricidal activity [5] was 98%. It also gave a mortality rate [7] of 100%, a mortality at 100 ppm [10, 13] of no less than 80% and an insecticidal activity [8] of 98%.
